Assay results taken from ChEMBL document CHEMBL5120926, “Isolation and Synthesis of Azuriaplysins A and B, Bromoditerpenes with an α-Methylene Carbonyl from the Sea Hare Aplysia kurodai” (J Nat Prod, 2022).

test system: HeLa S3; assay: Cytotoxicity against human HeLa S3 cells assessed as inhibition of cell growth incubated for 72 hrs by MTT assay; type: functional, cell-based; details: Homo sapiens, HeLa S3, 72 h

`C=C(CC[C@@H]1[C@@]2(C)CC[C@H](Br)C(C)(C)[C@@H]2CC[C@@]1(C)O)C(=O)CO` (stereo in doubt; form 1) was tested, and the IC50 was 8.1 µM.

same assay, conditions: hela s3

Compared with `C=C(C=O)CC[C@@H]1[C@@]2(C)CC[C@H](Br)C(C)(C)[C@@H]2CC[C@@]1(C)O` (stereo in doubt; form 2), `C=C(CC[C@@H]1[C@@]2(C)CC[C@H](Br)C(C)(C)[C@@H]2CC[C@@]1(C)O)C(=O)CO` (stereo in doubt; form 2) is 4.6-fold lower in IC50: 24 µM for the first, 5.2 µM for the second. The second is the more potent here.

Compared with `C=C(C=O)CC[C@@H]1[C@@]2(C)CC[C@H](Br)C(C)(C)[C@@H]2CC[C@@]1(C)O` (stereo in doubt; form 3), `C=C(CC[C@@H]1[C@@]2(C)CC[C@H](Br)C(C)(C)[C@@H]2CC[C@@]1(C)O)C(=O)CO` (stereo in doubt; form 3) is 3.4-fold lower in IC50: 14 µM for the first, 4.1 µM for the second. The second is the more potent here.

With `C=C(C=O)CC[C@@H]1[C@@]2(C)CC[C@H](Br)C(C)(C)[C@@H]2CC[C@@]1(C)O` (stereo in doubt; form 1) the IC50 was 40 µM.
